# Reference: ChEMBL document CHEMBL5370554, “Discovery of a first-in-class Aurora A covalent inhibitor for the treatment of triple negative breast cancer” (Eur J Med Chem, 2023)
# The source made the active and inactive calls. The calls are words filed in the database; no cut-off is given here.
# Experiments:
# [1] = molecular target: T1, Aurora kinase A (Homo sapiens) (UniProt O14965); test: Covalent binding affinity to recombinant human Aurora A (1 to 403 residues) expressed in Escherichia coli assessed as dissociation rate constant by surface plasmon resonance analysis
# T1 sequence (whole entry): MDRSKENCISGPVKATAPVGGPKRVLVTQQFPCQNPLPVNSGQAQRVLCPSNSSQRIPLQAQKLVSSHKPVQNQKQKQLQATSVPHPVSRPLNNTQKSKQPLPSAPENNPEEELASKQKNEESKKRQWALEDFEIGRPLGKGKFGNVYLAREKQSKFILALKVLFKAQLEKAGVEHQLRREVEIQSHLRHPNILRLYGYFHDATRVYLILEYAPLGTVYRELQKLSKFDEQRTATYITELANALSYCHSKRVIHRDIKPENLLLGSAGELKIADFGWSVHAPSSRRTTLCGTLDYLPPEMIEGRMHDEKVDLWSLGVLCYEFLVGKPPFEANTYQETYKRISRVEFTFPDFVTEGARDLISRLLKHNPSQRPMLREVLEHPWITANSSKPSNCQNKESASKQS
# MDA-MB-231 [2] = test: Induction of apoptosis in human MDA-MB-231 cells assessed as early apoptotic cells at 1.25 uM incubated for 24 hrs by Annexin V-FITC staining based flow cytometry (Rvb= 3.3%); type: functional
# Aurora kinase A [3] = molecular target: T2, Aurora kinase A (Homo sapiens, UniProt O14965); test: Inhibition of recombinant human Aurora A (1 to 403 residues) expressed in Escherichia coli using STK-substrate 2-biotin as substrate incubated for 60 mins in presence of 7.2uM ATP by HTRF assay
# T2 sequence (O14965 whole entry): T1 sequence (whole entry)
# Aurora kinase A [4] = molecular target: T2, Aurora kinase A; test: Inhibition of recombinant human Aurora A (1 to 403 residues) expressed in Escherichia coli using STK-substrate 2-biotin as substrate incubated for 15 mins in presence of 0.48 uM ATP by HTRF assay
# MDA-MB-231 [5] = test: Induction of apoptosis in human MDA-MB-231 cells assessed as live cells at 2.5 uM incubated for 24 hrs by Annexin V-FITC staining based flow cytometry (Rvb= 88.1%); type: functional
# Aurora kinase A [6] = molecular target: T2, Aurora kinase A; test: Inhibition of recombinant human Aurora A (1 to 403 residues) expressed in Escherichia coli using STK-substrate 2-biotin as substrate incubated for 40 mins in presence of 0.48 uM ATP by HTRF assay
# Aurora kinase A [7] = molecular target: T2, Aurora kinase A; test: Inhibition of recombinant human Aurora A (1 to 403 residues) expressed in Escherichia coli using STK-substrate 2-biotin as substrate incubated for 60 mins in presence of 2.4uM ATP by HTRF assay
# MDA-MB-231 [8] = test: Inhibition of […] in human MDA-MB-231 cells at 1 uM incubated for 14 days by crystal violet staining based colony formation assay (Rvb= 115+/-4%); type: functional; conditions: MDA-MB-231, 336 h, time 14 day
# Aurora kinase A [9] = molecular target: T2, Aurora kinase A; test: Inhibition of recombinant human Aurora A (1 to 403 residues) expressed in Escherichia coli using FAM-labeled peptide as substrate preincubated for 10 mins followed by substrate addition and measured after 20 mins in presence of ATP by HTRF assay
# [10] = Toxicity in BALB/c nude mouse xenografted with human MDA-MB-231 cells assessed as parenchymal injury in spleen at 15 mg/kg,ip every 2days for 20 days by Hematoxylin and Eosin staining based microscopy; type: organism-based; conditions: in vivo, 480 h, time 20 day
# MDA-MB-231 [11] = test: Induction of apoptosis in human MDA-MB-231 cells assessed as early apoptotic cells at 2.5 uM incubated for 24 hrs by Annexin V-FITC staining based flow cytometry (Rvb= 3.3%); type: functional
# [12] = Toxicity in BALB/c nude mouse xenografted with human MDA-MB-231 cells assessed as inflammatory cell infiltration in liver at 15 mg/kg,ip every 2days for 20 days by Hematoxylin and Eosin staining based microscopy; type: organism-based; conditions: in vivo, 480 h, time 20 day
# Aurora kinase A [13] = molecular target: T2, Aurora kinase A; test: Inhibition of recombinant human Aurora A (1 to 403 residues) expressed in Escherichia coli using STK-substrate 2-biotin as substrate incubated for 15 mins in presence of 24 uM ATP by HTRF assay
# MDA-MB-231 [14] = test: Induction of apoptosis in human MDA-MB-231 cells assessed as necrotic cells at 5 uM incubated for 24 hrs by Annexin V-FITC staining based flow cytometry (Rvb= 1.67%); type: functional
# MDA-MB-231 [15] = test: Induction of apoptosis in human MDA-MB-231 cells assessed as late apoptotic cells at 2.5 uM incubated for 24 hrs by Annexin V-FITC staining based flow cytometry (Rvb= 6.90%); type: functional
# HeLa = test: Antiproliferative activity against human HeLa cells assessed as inhibition of cell proliferation incubated for 48 hrs by CCK-8 assay; type: functional, cell-based
# MDA-MB-231 [16] = test: Induction of apoptosis in human MDA-MB-231 cells assessed as live cells at 5 uM incubated for 24 hrs by Annexin V-FITC staining based flow cytometry (Rvb= 88.1%); type: functional
# Aurora kinase A [17] = molecular target: T2, Aurora kinase A; test: Inhibition of recombinant human Aurora A (1 to 403 residues) expressed in Escherichia coli using STK-substrate 2-biotin as substrate incubated for 40 mins in presence of 2.4uM ATP by HTRF assay
# [18] = Toxicity in BALB/c nude mouse xenografted with human MDA-MB-231 cells assessed as parenchymal injury in kidney at 15 mg/kg,ip every 2days for 20 days by Hematoxylin and Eosin staining based microscopy; type: organism-based; conditions: in vivo, 480 h, time 20 day
# MDA-MB-231 [19] = test: Antitumor activity against human MDA-MB-231 cells xenografted in BALB/c nude mouse assessed as tumor growth inhibition at 15 mg/kg,ip every 2days for 20 days; type: functional; conditions: MDA-MB-231, 480 h, time 20 day, read-out: TGI
# [20] = molecular target: Aurora kinase B (Homo sapiens) (UniProt Q96GD4); test: Inhibition of Aurora B in human MDA-MB-231 cells assessed as effect on Aurora B phosphorylation at 0.2 to 0.6 uM incubated for 1 hrs by Western blot analysis; type: cell-based; conditions: dose 0.2-0.6 µM
# Aurora kinase A [21] = molecular target: T2, Aurora kinase A; test: Inhibition of recombinant human Aurora A (1 to 403 residues) expressed in Escherichia coli using STK-substrate 2-biotin as substrate incubated for 60 mins in presence of 0.48 uM ATP by HTRF assay
# SJSA-1 = test: Antiproliferative activity against human SJSA-1 cells assessed as inhibition of cell proliferation incubated for 48 hrs by CCK-8 assay; type: functional, cell-based; conditions: SJSA-1, 48 h
# [22] = Toxicity in BALB/c nude mouse xenografted with human MDA-MB-231 cells assessed as parenchymal injury in lung at 15 mg/kg,ip every 2days for 20 days by Hematoxylin and Eosin staining based microscopy; type: organism-based; conditions: in vivo, 480 h, time 20 day
# Aurora kinase A [23] = molecular target: T2, Aurora kinase A; test: Inhibition of recombinant human Aurora A (1 to 403 residues) expressed in Escherichia coli using STK-substrate 2-biotin as substrate incubated for 40 mins in presence of 24 uM ATP by HTRF assay
# [24] = molecular target: T1, Aurora kinase A (Homo sapiens); test: Inhibition of Aurora A in human MDA-MB-231 cells assessed as decrease in Aurora A phosphorylation at Thr288 residue at 0.2 to 0.6 uM incubated for 1 hrs by Western blot analysis; type: cell-based; conditions: dose 0.2-0.6 µM
# Mus musculus = test: In vivo inhibition of Aurora signalling pathway in human MDA-MB-231 cells xenografted in BALB/c nude mouse assessed as decrease in Aurora A phosphorylation at Thr288 residue in tumor at 15 mg/kg,ip every 2days for 20 days by Western blot analysis; type: functional, organism-based; conditions: time 20.0 day
# Sequence of Aurora kinase B (Homo sapiens) (Q96GD4 whole entry, the tested form may be a part): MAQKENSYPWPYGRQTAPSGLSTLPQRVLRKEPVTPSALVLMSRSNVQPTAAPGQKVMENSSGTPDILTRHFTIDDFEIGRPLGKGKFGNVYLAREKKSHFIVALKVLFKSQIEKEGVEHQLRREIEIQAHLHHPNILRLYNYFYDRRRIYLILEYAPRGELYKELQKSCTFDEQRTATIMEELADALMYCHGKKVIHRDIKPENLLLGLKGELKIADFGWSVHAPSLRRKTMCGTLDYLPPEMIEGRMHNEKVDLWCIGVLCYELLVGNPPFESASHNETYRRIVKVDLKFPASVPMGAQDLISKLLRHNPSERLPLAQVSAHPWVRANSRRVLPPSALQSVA
smiles,measurement,setting,value
C=CC(=O)Nc1ccc(-c2nc(Nc3cc(C)[nH]n3)c3ccc(N4CCN(C)CC4)cc3n2)cc1,Activity,[1],Active
same,Activity,MDA-MB-231 [2],10.5%
same,IC50,Aurora kinase A [3],8.13 nM
same,IC50,Aurora kinase A [4],1.49 nM
same,Activity,MDA-MB-231 [5],60.1%
same,IC50,Aurora kinase A [6],1.55 nM
same,IC50,Aurora kinase A [7],3.91 nM
same,inhibition at 1 µM,MDA-MB-231 [8],13%
same,IC50,Aurora kinase A [9],1.7 nM
same,Activity,[10],Non-Toxic
same,Activity,MDA-MB-231 [11],17.7%
same,Activity,[12],Non-Toxic
same,IC50,Aurora kinase A [13],5.24 nM
same,Activity,MDA-MB-231 [14],0.27%
same,Activity,MDA-MB-231 [15],21%
same,IC50,HeLa,6990 nM
same,Activity,MDA-MB-231 [16],8.59%
same,IC50,Aurora kinase A [17],2.77 nM
same,Activity,[18],Non-Toxic
same,inhibition in vivo at 15 mg/kg,MDA-MB-231 [19],32.3%
same,inhibition,[20],inactive
same,IC50,Aurora kinase A [21],3.41 nM
same,IC50,SJSA-1,4270 nM
same,Activity,[22],Non-Toxic
same,IC50,Aurora kinase A [23],8.34 nM
same,inhibition,[24],Dose-Dependent Effect
same,inhibition,Mus musculus,Active
